Source: US20050288347A1, “Certain triazole-based compounds, compositions, and uses thereof” (priority 2004, published 2005)
Entries after “also recorded” stand apart in the source; their conditions may differ.

The molecules below were run against protein kinase (assay: HTS ATP-utilizing enzyme assay, off-chip mobility-shift format (Caliper HTS 250)). Settings: kinase(s) for which the compound exhibits protein kinase inhibitory activity; test compound 10 μM; active = greater than three-sigma from the mean activity of inactive compounds.
Format: biochemical, human
Procedure, shortened: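 Single-point screen at 10 μM compound in HEPES pH 7.5 buffer with Triton X-100 and BSA, 2.5 h at 20–22 °C. Substrate-to-phosphopeptide ratio measured by off-chip microfluidic mobility shift; EDTA wells as 100% and DMSO wells as 0% control, hits called at three-sigma limits.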

SMILES | Kinase
Cn1c(SCC(=O)c2ccc3c(c2)OCCO3)nnc1-c1ccc(S(=O)(=O)N2CCOCC2)cc1 | AURORA-A
O=C(CSc1nnc(-c2cccc(C(F)(F)F)c2)[nH]1)c1ccc2c(c1)OCCO2 | AURORA-A; also recorded: GSK3-α; also recorded: FLT-3
O=C(CSc1nnc(-c2ccc(O)cc2)n1CC1CCCO1)c1ccc2c(c1)OCCO2 (centres unmarked) | GSK3-β and SGK1
CCCn1c(SCC(=O)c2ccc3c(c2)OCCO3)nnc1-c1ccco1 | DYRK2
Cc1cccc(-c2nnc(SCC(=O)c3ccc4c(c3)OCCO4)[nH]2)c1 | FLT-3; also recorded: GSK3-α; also recorded: AURORA-A
Cc1nnc(SCC(=O)c2ccc3c(c2)OCCO3)[nH]1 | GSK3-α; also recorded: GSK3-β; also recorded: DYRK2
CCn1c(SCC(=O)c2cc(OC)ccc2OC)nnc1C(C)C | PDGFRR-α and FLT-3 and FYN
O=C(CSc1nnc(CNc2ccc(F)cc2)n1CC1CCCO1)N1CCCc2ccccc21 (centres unmarked) | AKT1
Cn1c(SCC(=O)c2ccc(O)c(O)c2)nnc1-c1ccccc1 | MSK2 and FYN and HCK
CCOc1ccc(Nc2nnc(SCC(=O)c3cc(C(C)(C)C)c(O)c(C(C)(C)C)c3)n2-c2ccc(OCC)cc2)cc1 | FYN
Cc1ccc(-n2c(CNc3cccc(Cl)c3)nnc2SCC(=O)c2ccc(Cl)cc2)cc1 | LYNA
O=C(CSc1nnc(-c2cc3ccccc3cc2O)n1Cc1ccco1)c1ccc(F)cc1 | AURORA-A
Cn1c(SCC(=O)N2CCCCCC2)nnc1-c1ccc(S(=O)(=O)N2CCCC2)cc1 | c-TAK1
CCn1c(SCC(=O)Nc2cc(OC)c(OC)cc2C(=O)O)nnc1-c1ccc(O)cc1 | AURORA-A
O=C(CSc1nnc(-c2ccc(O)cc2)n1-c1cccc(Cl)c1)Nc1ccccc1 | GSK3-α
O=C(CSc1nnc(CCN2CCOCC2)n1-c1ccc(F)cc1)c1ccccc1 | FYN
COc1ccc(C(=O)CSc2nnc(-c3cc4ccccc4cc3O)n2Cc2ccco2)cc1 | AURORA-A
O=C(CSc1nnc(-c2ccc(O)cc2)n1Cc1ccco1)Nc1nc2c(s1)CCCC2 | GSK3-β; also recorded: GSK3-α
NC(=O)CSc1nnc(-c2ccc(O)cc2)n1Cc1ccco1 | GSK3-β; also recorded: GSK3-α
C=CCn1c(SCC(=O)NCCCN2CCOCC2)nnc1-c1sc2ccccc2c1Cl | LYNA

SMILES | Kinase
C=CCn1c(CSc2nc3ccccc3s2)nnc1SCC(=O)NCCO | HCK
O=C(CSc1nnc(-c2ccc(O)cc2)n1Cc1ccccc1)c1ccccc1 | GSK3-α
CCn1c(SCC(=O)Nc2ccccc2)nnc1-c1ccc(O)cc1 | CHEK2
CCn1c(SCC(=O)N(c2ccccc2)c2ccccc2)nnc1-c1ccc(O)cc1 | SRC
CCn1c(SCC(=O)c2ccc(OC)cc2)nnc1-c1ccncc1 | PKA and MAPKAPK-2 and MSK1
COc1ccc(OC)c(C(=O)CSc2nnc(-c3ccccc3N)n2C)c1 | PDGFRR-α
COc1ccccc1-n1c(SCC(=O)Nc2ccc3sc(C)nc3c2)nnc1-c1ccccc1O | CDK1
COCCn1c(SCC(=O)N2c3ccccc3Sc3ccccc32)nnc1-c1cc2ccccc2cc1O | DAPK1
CCn1c(SCC(=O)c2ccc(C)cc2)nnc1-c1ccc(S(=O)(=O)N2CCCCCC2)cc1 | AURORA-A
COc1ccc(-n2c(SC(C)C(=O)Nc3ccccc3)nnc2-c2ccc(O)cc2)cc1 (centres unmarked) | GSK3-α and AKT1
Cc1cc(NC(=O)CSc2nnc(-c3ccc(O)cc3)n2C)no1 | GSK3-β; also recorded: GSK3-α
Cn1c(SCC(=O)c2ccccc2)nnc1-c1ccc(O)cc1 | GSK3-β and GSK3-α and MSK1
COc1ccccc1-n1c(CNc2c(C)cccc2C)nnc1SCC(=O)Nc1cccc(O)c1 | CHEK2
CCOc1ccc(NCc2nnc(SCC(=O)NCC3CCCO3)n2-c2ccccc2OC)cc1 (centres unmarked) | FYN
COc1ccc(OCc2nnc(SCC(=O)c3ccccc3)n2C)cc1 | PAK2
O=C(CSc1nnc(CSc2nc3ccccc3s2)n1-c1ccccc1)NCCO | FYN
O=C(CSc1nnc(CSc2nc3ccccc3s2)n1-c1ccccc1)NCCN1CCOCC1 | CSK
O=C(CSc1nnc(CSc2nc3ccccc3s2)n1-c1ccccc1)N1CCN(CCO)CC1 | HCK
O=C(CSc1nnc(-c2ccncc2)n1CC1CCCO1)Nc1nccs1 (centres unmarked) | GSK3-β and GSK3-α and ABL1
O=C(CSc1nnc(Cc2ccccc2)[nH]1)c1ccc2c(c1)OCCO2 | GSK3-α

SMILES | Kinase
Cn1c(SCC(=O)c2ccc3c(c2)OCCO3)nnc1C1CC1 | AURORA-A and FYN
CC(C)(C)c1nnc(SCC(=O)c2ccc3c(c2)OCCO3)[nH]1 | DYRK2; also recorded: GSK3-α
Cc1ccc(NCc2nnc(S)n2CC2CCCO2)cc1Cl (centres unmarked) | GSK3-β; also recorded: GSK3-α
Cc1ccc(-n2c(S)nnc2CNc2ccc(C)c(Cl)c2)cc1 | GSK3-α; also recorded: AURORA-A
COc1ccc(NC(=O)CSc2nnc(-c3ccccc3O)n2-c2ccc(C)cc2)c(OC)c1 | MSK2 and CDK1
COc1ccc(-n2c(SC(C)C(=O)Nc3c(C)cccc3C)nnc2-c2ccc(O)cc2)cc1 (centres unmarked) | AKT1
CCn1c(SCC(=O)Nc2cccc(C(C)=O)c2)nnc1-c1ccc(O)cc1 | GSK3-α
COc1ccc(-n2c(SCC(=O)Nc3cccc(C(C)=O)c3)nnc2-c2ccc(O)cc2)cc1 | GSK3-β; also recorded: GSK3-α
CC(=O)c1cccc(NC(=O)CSc2nnc(-c3ccc(O)cc3)n2C)c1 | GSK3-β; also recorded: GSK3-α; also recorded: CHEK2
COc1cc(C(=O)CSc2nnc(-c3ccc(O)cc3)n2Cc2ccco2)ccc1NC(C)=O | GSK3-α
CCC(=O)Nc1ccc(C(=O)CSc2nnc(-c3ccc(O)cc3)n2Cc2ccco2)cc1OC | GSK3-β; also recorded: GSK3-α
CC(=O)c1ccc(NC(=O)CSc2nnc(-c3ccc(O)cc3)n2C)cc1 | AKT1
CCc1nnc(NC(=O)CSc2nnc(-c3ccc(S(=O)(=O)N4CCN(C)CC4)cc3)n2CC)s1 | CHEK2
CCc1nnc(NC(=O)CSc2nnc(-c3ccc(O)cc3)n2-c2ccc(OC)cc2)s1 | GSK3-β and GSK3-α and AKT1
CCOc1ccc2nc(NC(=O)CSc3nnc(-c4ccncc4)n3CC3CCCO3)sc2c1 (centres unmarked) | PDGFRR-α and GSK3-α and ABL1
O=C(CSc1nnc(-c2ccc(O)cc2)n1-c1cccc(Cl)c1)NCc1ccccc1 | GSK3-α
O=C(CSc1nnc(-c2ccc([N+](=O)[O-])cc2)n1/C=C/CN1CCOCC1)N1CCOCC1 | FYN
COC(=O)c1ccccc1NC(=O)CSc1nnc(-c2ccc(O)cc2)n1Cc1ccco1 | GSK3-β and MSK2 and GSK3-α
COC(=O)c1ccccc1NC(=O)CSc1nnc(-c2ccc(O)cc2)n1Cc1ccccc1 | AKT3 and GSK3-β and GSK3-α
COC(=O)c1ccccc1NC(=O)CSc1nnc(-c2ccc(O)cc2)n1C | GSK3-β; also recorded: GSK3-α

Same assay, conditions: test compound 10 μM; active = activity greater than three-sigma from the mean of the predominately inactive population for that enzyme

SMILES | protein kinase against which the compound exhibits inhibitory activity (Table 3)
CC(=O)c1ccc(-n2c(SCCCCc3ccccc3)nnc2-c2cccc(Cl)c2)cc1 | INSR
CCC(O)CSc1nnc(-c2cccc(Cl)c2)n1-c1ccccc1OC (centres unmarked) | ROCK2
COc1ccccc1-n1c(SCC(=O)c2ccc3c(c2)OCCO3)nnc1-c1cccc(Cl)c1 | ROCK2
COc1ccccc1-n1c(SCC(=O)c2ccc(Cl)s2)nnc1-c1cccc(Cl)c1 | ROCK2
COc1ccccc1-n1c(SCC(=O)Nc2ccccc2)nnc1-c1cccc(Cl)c1 | ROCK2
COc1ccccc1-n1c(SCCN)nnc1-c1cccc(Cl)c1 | PIM-1-KINASE
COc1ccccc1-n1c(SCc2ccc(Cl)nc2)nnc1-c1cccc(Cl)c1 | ROCK2
COc1ccccc1-n1c(SCCn2cccc2)nnc1-c1cccc(Cl)c1 | ROCK2
COc1ccccc1-n1c(SCc2ccc(F)c(F)c2)nnc1-c1cccc(Cl)c1 | ROCK2
COc1ccccc1-n1c(SCc2cccc(C(=O)O)c2)nnc1-c1cccc(Cl)c1 | ROCK2
COc1ccccc1-n1c(SCc2ccc(C(=O)O)cc2)nnc1-c1cccc(Cl)c1 | AURORA-A
O=C(CSc1nnc(-c2ccc(O)cc2)n1-c1ccccc1)NNC(=O)c1ccc(Cl)cc1 | AURORA-A
COc1ccc(C(=O)NNC(=O)CSc2nnc(C)n2CCc2ccccc2)cc1 | DGFRR-α
COc1ccccc1-n1c(SCCC2COCCN2)nnc1-c1cccc(Cl)c1 (centres unmarked) | ROCK2
COc1ccccc1-n1c(SCC(=O)Nc2cccc(NC(=O)C3CCCO3)c2)nnc1-c1ccccc1O (centres unmarked) | AURORA-A
O=C(CSc1nnc(-c2ccc(O)cc2)n1-c1ccccc1)NN(Br)C(=O)c1ccccc1 | AURORA-A
COc1ccccc1-n1c(SCC(=O)NN(O)C(=O)c2ccccc2)nnc1-c1ccccc1O | FYN and FLT-3 and SYK
COc1ccc(C(=O)NNC(=O)CSc2nnc(-c3ccc(O)cc3)n2Cc2ccco2)cc1 | GSK3-β; also recorded: AURORA-A; also recorded: PDGFRR-α
O=C(CSc1nnc(-c2ccccc2O)n1Cc1ccccc1)NNC(=O)c1ccccc1O | FYN and HCK
CCn1c(SCC(=O)NNC(=O)c2ccc(OC)cc2)nnc1-c1ccc(O)cc1 | GSK3-a; also recorded: AURORA-A
COc1ccc(C(=O)NNC(=O)CSc2nnc(CNc3cccc(Cl)c3)n2CCc2ccccc2)cc1 | PDGFRR-α and GSK3-β and CDK1
Cc1cc(C)nc(SCc2nnc(SCC(=O)NNC(=O)c3ccccc3O)n2-c2ccccc2)n1 | FYN and SRC and HCK
Cc1cc(C)nc(SCc2nnc(SCC(=O)NNC(=O)c3ccccc3O)n2C)n1 | FYN and SRC and FLT-3
